Laboratory results reported in US20060110456A1, “Method for biocidal and/or biostatic treatment and compositions therefor” (NATIONAL UNIVERSITY OF SINGAPORE, priority 2004, published 2006).
Values after ≈ are worked out from the molar mass of the structure shown. “Also recorded” adds a separate entry of the source. Where a name gives a salt, the structure may show the parent alone.

What was measured:
[1] = test system: marine bacteria (ten strains); experiment: Bio-adhesion assay (crystal violet microplate); assay type: cell-based, marine bacteria isolated from Singapore fouling communities; conditions: for Effect on bacterial adhesion: polystyrene or tissue culture surface as named in the value; for Effect of drugs on adhesion of bacteria: 50 μl of 125 μg ml^−1 drug + 200 μl bacteria, 2 hours
Description: The effect of pharmaceuticals on bacterial adhesion was analyzed using a modified microplate method adapted from Shea and Williamson (1990). This method consists of staining the attached bacteria with crystal violet, releasing the stain with sodium desoxycholate, and measuring the resulting absorbance of the crystal violet. The absorbance is proportional to the degree of bacterial adhesion to the surface.
Ten strains of bacteria (strain numbers 1, 4, 9, 14, 18, 20, 27, 28, 29 and 30) were chosen for this study. Flat bottom non-tissue culture treated polystyrene (hydrophobic, Falcon #351172) (referred to as polystyrene) and flat bottom tissue culture treated polystyrene (hydrophilic, Falcon #353072) microplates were used in the analyses. These two types of plates were chosen because they were sterile and offered two different kinds of surfaces to determine the adhesion preferences of the bacteria. Each test was done in duplicate. For the control and blank wells, 50 μl of sterile deionized water were added. For those wells that were to contain drugs, 50 μl of drugs at concentration of 125 μg ml^−1 were added. Then 200 μl of bacteria suspension in sterile seawater, whose absorbance had been adjusted to 0.6 at 600 nm using a spectrophotometer (Beckman), were added. Blanks contained 200 μl of sterile seawater.
The bacteria in suspension were allowed to attach for 2 hours at 28° C. Unattached cells were removed by pipetting out almost all trace of liquid and rinsed three times with 300 μl of sterile seawater each time. The attached cells were stained with 200 μl of crystal violet solution (0.1% w/v) in each well for 5 min. After removing the stain by pipetting, the wells were rinsed twice with 300 μl of sterile deionized water each time. Sodium desoxycholate (200 μl) solution (2% w/v) was then added to each well to extract the crystal violet from the stained cells for 10 min. The absorbance of the extracted solution was read at 590 nm using a microplate reader (Sunrise, Tecan, Switzerland).
The data were analyzed using T-test (Two-sample assuming unequal variances) to determine the significance of the absorbance values of each bacterial strain versus the blanks to determine whether there was adhesion, i.e. increase in absorbance. Each drug effect on adhesion was analyzed by comparing the absorbance of each bacterial strain minus the control blank versus bacteria in presence of drug minus the drug control. When the data is significant, there are bacterial cells attached to the surface in the control but in the presence of drugs, there is no attachment.

[2] = test system: Balanus amphitrite cyprids; experiment: whole plant or invertebrate; conditions: for IC50: Amphibalanus amphitrite, 24 h, read-out: ED50; for Prevention of settlement of barnacle cyprids: crude rank, best (1) to worst (8)
Description: Pharmaceuticals from the respective manufacturers were treated in the following way. A pill containing a known amount of active ingredient (as stated in product information) was ground in a mortar and pestle and a suspension of 2 mg ml^−1 generated in de-ionized water. This stock solution is stored at −20° C. in 4 ml amber screw cap vials. For the bioassays, 250 ul of stock solution is added to 10 ml of 1 um filtered seawater. This suspension was then sonicated for 10 minutes. Serial dilutions of this 50 μg ml^−1 seawater solution, or suspension, with seawater was done to generate the required range of concentrations.
This method is now standard practice for many antifouling screening of novel compounds.
Barnacle larvae from field-collected adults were reared on an algal mixture of 1:2:2 v/v of Rhodomonas salina, Tetraselmis suecica and Chaetoceros muelleri at 25° C., at approximately 5×10^5 cells per ml density. On this regime, larvae metamorphose to cyprids in 5 days.
Test solutions were made up to twice the required final concentration. 1 ml of test solution was added into each well, and cyprids were transferred into each well in 1 ml of seawater. Assays were done in triplicate. After 24 hours, larvae that had attached and metamorphosed were enumerated and the result expressed as percentage settlement. Larvae not attached were scored as not settled.
The Therapeutic Ratio, or LC50/EC50, is a way of assessing the effectiveness of the compound in relation to its toxicity. […] LC50 and EC50 estimates and the therapeutic ratio should be considered as working values providing an estimation of potency, rather than as absolutes.

[3] = cited from earlier work; for Solubility: in words
[4] = strain 4 (Bacillus), hydrophobic surface (untreated polystyrene)
[5] = strain 9 (Bacillus), hydrophobic surface (untreated polystyrene)
[6] = strain 20, hydrophobic surface (untreated polystyrene)
[7] = strain 27, hydrophobic surface (untreated polystyrene)
[8] = strain 28, hydrophobic surface (untreated polystyrene)
[9] = strain 30, hydrophilic surface (tissue culture treated polystyrene)
[10] = strain 1 (Rhodovulum), hydrophobic surface (untreated polystyrene)

SMILES	Effect on bacterial adhesion ([1]; hydrochloride)	Effect of drugs on adhesion of bacteria [1, 4]	Effect of drugs on adhesion of bacteria [1, 5]	Effect of drugs on adhesion of bacteria ([1]; strain 14 (Vibrio), hydrophobic surface (untreated polystyrene))	Effect of drugs on adhesion of bacteria ([1]; strain 18 (Microbacterium), hydrophobic surface (untreated polystyrene))	Effect of drugs on adhesion of bacteria [1, 6]	Effect of drugs on adhesion of bacteria [1, 7]	Effect of drugs on adhesion of bacteria [1, 8]	Effect of drugs on adhesion of bacteria ([1]; strain 29, hydrophobic surface (untreated polystyrene))	Effect of drugs on adhesion of bacteria [1, 9]	Effect of drugs on adhesion of bacteria ([1]; strain 30, hydrophobic surface (untreated polystyrene))	IC50 [2] [µg/mL]	Prevention of settlement of barnacle cyprids [2]	Solubility [3]	Effect of drugs on adhesion of bacteria ([1]; strain 27, hydrophilic surface (tissue culture treated polystyrene))	Effect on bacterial adhesion [1]	Effect of drugs on adhesion of bacteria [1, 10]	Solubility in water [3] [µg/mL]	ED50 ([2]; barnacle cyprids, 24 hours, concentration that caused 50% settlement inhibition) [µg/mL]
Cc1nccn1CC1CCc2c(c3ccccc3n2C)C1=O (stereo not drawn) [ZFN, ondansetron hydrochloride]	prevented biofilm formation for almost all strains in the polystyrene surface; also recorded: increased cell adhesion in the tissue culture surface for strain 30	** (** p < 0.01)	*** (*** p < 0.005)	* (Significantly less adhesion observed: * p < 0.05)	* (Significantly less adhesion observed: * p < 0.05)	** (** p < 0.01)	*** (*** p < 0.005)	*** (*** p < 0.005)	* (Significantly less adhesion observed: * p < 0.05)	* (Significantly less adhesion observed: * p < 0.05)	* (Significantly less adhesion observed: * p < 0.05)	0.242	5	soluble in saline and water	–	–	–	–	–
CN1CCN(C(c2ccccc2)c2ccccc2)CC1 [CYZ, Cyclizine hydrochloride]	did not modify bacterial adhesion on polystyrene; also recorded: marginally increased adhesion for strain 27 in the tissue culture surface	–	–	–	–	–	–	–	–	–	–	0.156	4	soluble in water	*Incr adhesion	–	–	–	–
CCCCCCCCCC(=O)OC1(c2ccc(Cl)cc2)CCN(CCCC(=O)c2ccc(F)cc2)CC1 [HDL, haloperidol decanoate]	–	–	–	–	–	* (Significantly less adhesion observed: * p < 0.05)	–	–	–	–	–	0.119 (≈ 0.225 µM)	3	almost insoluble in water	–	significant inhibition of adhesion in strain 1 and 20	*** (*** p < 0.005)	10 (≈ 18.9 µM)	–
CN[C@H]1CC[C@@H](c2ccc(Cl)c(Cl)c2)c2ccccc21.Cl [ZLT, sertraline hydrochloride]	–	*** (*** p < 0.005)	* (Significantly less adhesion observed: * p < 0.05)	–	–	*** (*** p < 0.005)	*** (*** p < 0.005)	*** (*** p < 0.005)	–	*** (*** p < 0.005)	–	–	6	slightly soluble in water	–	–	*** (*** p < 0.005)	–	0.50185
